Test results reported in ChEMBL document CHEMBL1201862, “PubChem BioAssay data set” (2004).
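Cells were grown in 96-well plates and exposed to each compound for 48 hours at five concentrations; endpoints were interpolated linearly between bracketing concentrations, or set to the highest concentration if not reached. At the GI50, growth is halved.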 The source made the active and inactive calls. Rule as the data show it: active = GI50 up to about 1.1 µM and inactive = higher.

Assays:
Assay in all cases: NCI-60 cell line screen, 48 h
RXF 393 = system: RXF 393
SF-539 = system: SF-539
COLO 205 = system: COLO 205
EKVX = system: EKVX
786-0 = system: 786-0
HOP-62 = system: HOP-62
SF-268 = system: SF-268
OVCAR-5 = system: OVCAR-5
UO-31 = system: UO-31
UACC-62 = system: UACC-62
A549 = system: A549
U-251 = system: U-251
PC-3 = system: PC-3
SNB-75 = system: SNB-75
HCT-15 = system: HCT-15
SK-MEL-28 = system: SK-MEL-28
HOP-92 = system: HOP-92
CCRF-CEM = system: CCRF-CEM
RPMI-8226 = system: RPMI-8226
OVCAR-8 = system: OVCAR-8

Row | Compound | GI50 (RXF 393) | GI50 (SF-539) | GI50 (COLO 205) | GI50 (EKVX) | GI50 (786-0) | GI50 (HOP-62) | GI50 (SF-268) | GI50 (OVCAR-5) | GI50 (UO-31) | GI50 (UACC-62) | GI50 (A549) | GI50 (U-251) | GI50 (PC-3) | GI50 (SNB-75) | GI50 (HCT-15) | GI50 (SK-MEL-28) | GI50 (HOP-92) | GI50 (CCRF-CEM) | GI50 (RPMI-8226) | GI50 (OVCAR-8)
1 | CC1OC(O)CC(N(C)C)C1O.CC1OC(O)CCC1O.CCC1CC(O)c2c(O)c3c(c(O)c2C1O)C(=O)c1cccc(O)c1C3=O (stereo not given) | 0.0039 µM (active) | 0.0373 µM (active) | 0.0209 µM (active) | 0.0281 µM (active) | 0.0124 µM (active) | 0.034 µM (active) | 0.0335 µM (active) | 0.0375 µM (active) | 0.0114 µM (active) | 0.0197 µM (active) | 0.0313 µM (active) | 0.0211 µM (active) | 0.0177 µM (active) | 0.0136 µM (active) | 0.0381 µM | 0.0266 µM (active) | 0.01 µM (active) | 0.0223 µM (active) | 0.0208 µM (active) | 0.0211 µM (active)
2 | Cc1ccc(C)c(C2NC(=O)c3ccccc3N2)c1 (stereo not given) | 1.95 µM (inactive) | 0.587 µM (active) | 0.703 µM (active) | 5.07 µM (inactive) | 1.76 µM (inactive) | 1.93 µM (inactive) | 3.27 µM (inactive) | 6.18 µM (inactive) | 7.71 µM (inactive) | 1.31 µM (inactive) | 1.79 µM (inactive) | 1.21 µM (inactive) | 1.06 µM (active) | 0.423 µM (active) | 0.515 µM | 12.5 µM (inactive) | 37.2 µM (inactive) | 0.753 µM (active) | 2.11 µM (inactive) | 4.31 µM (inactive)
3 | NCCCN(CCCCN(CCCN)C(=O)OCc1ccccc1)C(=O)OCc1ccccc1 | 98.6 µM (inactive) | > 100 µM (inactive) | > 100 µM (inactive) | > 100 µM (inactive) | > 100 µM (inactive) | > 100 µM (inactive) | 35.3 µM (inactive) | > 100 µM (inactive) | > 100 µM (inactive) | 71.4 µM (inactive) | > 100 µM (inactive) | > 100 µM (inactive) | 45.8 µM (inactive) | 56.8 µM (inactive) | > 100 µM | > 100 µM (inactive) | 29.9 µM (inactive) | 47 µM (inactive) | 73.3 µM (inactive) | > 100 µM (inactive)
4 | NCOC(=O)Cc1ccc(Br)cc1 | > 100 µM (inactive) | > 100 µM (inactive) | > 100 µM (inactive) | > 100 µM (inactive) | > 100 µM (inactive) | > 100 µM (inactive) | > 100 µM (inactive) | > 100 µM (inactive) | > 100 µM (inactive) | > 100 µM (inactive) | > 100 µM (inactive) | > 100 µM (inactive) | > 100 µM (inactive) | > 100 µM (inactive) | > 100 µM | > 100 µM (inactive) | > 100 µM (inactive) | 80 µM (inactive) | > 100 µM (inactive) | > 100 µM (inactive)
5 | CC1=C(Br)C(=O)c2c(O)ccc(O)c2C1=O | 1.42 µM (inactive) | 0.646 µM (active) | 0.187 µM (active) | 2.37 µM (inactive) | 0.19 µM (active) | 0.849 µM (active) | 1.99 µM (inactive) | 1.66 µM (inactive) | 0.625 µM (active) | 0.71 µM (active) | 1.89 µM (inactive) | 1.5 µM (inactive) | 1.41 µM (inactive) | 1.51 µM (inactive) | 0.342 µM | 0.875 µM (active) | 0.627 µM (active) | 0.0183 µM (active) | 0.278 µM (active) | 0.481 µM (active)
6 | O=C1NC2(CCNCC2)Oc2ccccc21 | 64.1 µM (inactive) | > 100 µM (inactive) | > 100 µM (inactive) | > 100 µM (inactive) | > 100 µM (inactive) | > 100 µM (inactive) | > 100 µM (inactive) | > 100 µM (inactive) | > 100 µM (inactive) | > 100 µM (inactive) | > 100 µM (inactive) | > 100 µM (inactive) | > 100 µM (inactive) | > 100 µM (inactive) | > 100 µM | > 100 µM (inactive) | > 100 µM (inactive) | > 100 µM (inactive) | > 100 µM (inactive) | > 100 µM (inactive)
7 | Cc1c(-c2ccc(-c3ccccc3F)cc2)nc2ccc(F)cc2c1C(=O)O [BREQUINAR SODIUM] | 11.7 µM (inactive) | 0.346 µM (active) | 0.519 µM (active) | 16 µM (inactive) | 0.195 µM (active) | 1.1 µM (active) | 0.372 µM (active) | 38.8 µM (inactive) | 1.14 µM (inactive) | 0.265 µM (active) | 0.234 µM (active) | 0.194 µM (active) | 0.5 µM (active) | 30.3 µM (inactive) | 0.0566 µM | 9.93 µM (inactive) | 35.2 µM (inactive) | 0.284 µM (active) | 0.373 µM (active) | 0.325 µM (active)
8 | O=C1CC2(CCNCC2)C(=O)N1N1CCCCC1 | > 100 µM (inactive) | > 100 µM (inactive) | > 100 µM (inactive) | > 100 µM (inactive) | > 100 µM (inactive) | > 100 µM (inactive) | > 100 µM (inactive) | > 100 µM (inactive) | > 100 µM (inactive) | > 100 µM (inactive) | > 100 µM (inactive) | > 100 µM (inactive) | > 100 µM (inactive) | > 100 µM (inactive) | > 100 µM | > 100 µM (inactive) | > 100 µM (inactive) | > 100 µM (inactive) | > 100 µM (inactive) | > 100 µM (inactive)
9 | O=c1oc2ccc(Cl)cc2cc1-c1cn2cc(Cl)ccc2n1 | > 100 µM (inactive) | > 100 µM (inactive) | > 100 µM (inactive) | > 37.3 µM (inactive) | > 42.4 µM (inactive) | > 69.3 µM (inactive) | > 80.9 µM (inactive) | > 100 µM (inactive) | > 44 µM (inactive) | 0.574 µM (active) | 14.1 µM (inactive) | > 49.3 µM (inactive) | > 100 µM (inactive) | > 100 µM (inactive) | 2.36 µM | > 100 µM (inactive) | > 100 µM (inactive) | > 28.8 µM (inactive) | > 100 µM (inactive) | > 57 µM (inactive)
10 | CC1CC2=C(C1)C(C1(C)C(=O)CC3C(C1=O)C3(C)C)C(C)C2=O (stereo not given) | > 100 µM (inactive) | > 100 µM (inactive) | > 100 µM (inactive) | > 100 µM (inactive) | > 100 µM (inactive) | > 100 µM (inactive) | > 100 µM (inactive) | > 100 µM (inactive) | 99.5 µM (inactive) | > 100 µM (inactive) | > 100 µM (inactive) | > 100 µM (inactive) | > 100 µM (inactive) | > 100 µM (inactive) | > 100 µM | > 100 µM (inactive) | > 100 µM (inactive) | > 100 µM (inactive) | > 100 µM (inactive) | > 100 µM (inactive)
11 | C[n+]1ccn2c3nc4ccccc4nc3c([O-])c(C#N)c21 | > 65.9 µM (inactive) | > 100 µM (inactive) | > 100 µM (inactive) | > 100 µM (inactive) | > 48.5 µM (inactive) | > 10 µM (inactive) | > 100 µM (inactive) | > 10 µM (inactive) | > 100 µM (inactive) | > 100 µM (inactive) | > 29.5 µM (inactive) | > 100 µM (inactive) | > 100 µM (inactive) | > 100 µM (inactive) | > 10 µM | > 100 µM (inactive) | > 100 µM (inactive) | > 100 µM (inactive) | > 100 µM (inactive) | > 56.6 µM (inactive)
12 | CCOC(=O)c1ccc(/N=C2\SC(=S)N(c3ccc(F)cc3)\C2=N/c2ccc(C(=O)OCC)cc2)cc1 | 9.68 µM (inactive) | 20 µM (inactive) | 19.3 µM (inactive) | 22.1 µM (inactive) | 17.1 µM (inactive) | > 58.7 µM (inactive) | 7.4 µM (inactive) | 23 µM (inactive) | 10.8 µM (inactive) | 8.07 µM (inactive) | 41 µM (inactive) | 20.6 µM (inactive) | 13.5 µM (inactive) | 20.2 µM (inactive) | 4.29 µM | 13.2 µM (inactive) | 7.76 µM (inactive) | 6.95 µM (inactive) | 9.42 µM (inactive) | 7.53 µM (inactive)
